Data taken from publication PMC4179164, “Ophiobolin A from Bipolaris oryzae Perturbs Motility and Membrane Integrities of Porcine Sperm and Induces Cell Death on Mammalian Somatic Cell Lines” (Toxins, 2014).
≈ marks a conversion by molar mass, not a printed value.

Tests used:
boar spermatozoa [1] = experiment: Cell membrane permeability assay on static sperm cells (PI and calcein-AM staining); type: cell-based; details: 24 h, read-out: Toxic endpoint EC50, Permeability to PI on static cells
Method: This phenomenon may indicate that the cell still produce ATP and NADH in the cytoplasm after the OPA treatment, which differs from the effect caused by cation channel forming alamethicin, which depletes the sperm cells from motility, plasma membrane integrity as well as NADH and ATP production at similar concentrations. To confirm the effect of OPA on the plasma membrane permeability, the viability staining with propidium iodide (PI) and calcein-AM was performed after one day incubation at room temperature, (similar conditions as the JC-1 staining) where the EC50 value appeared at 1.6 μg mL^−1, over twice the concentrations that depolarized the mitochondria (Table 1).
Cell membrane permeability assay on motile sperm cells was inspected by staining with PI (Molecular Probes, Eugene, OR, USA) in sperm cells induced to swim by shaking at 37 °C. […] This suspension was incubated for 15 min at 37 °C in dark and measured using a microplate reader (Fluoroskan Ascent, Thermo Scientific, Vantaa, Finland) at excitation and emission wavelengths of 544 nm and 600 nm, respectively. For observing plasma membrane damage by PI staining frozen-thawed semen was used as a positive control (for mortality of 100%) representing the maximal fluorescence emitted by the cells permeable to PI and Dulbeco’s phosphate buffered saline was applied as background control (blank). […]

[2] = Cell membrane permeability assay on motile sperm cells (PI staining); type: cell-based, boar; details: boar (pig), motile boar spermatozoa (commercial extended boar semen); at 800 ng mL^−1 to 1600 ng mL^−1, 37 °C, 2 h
Method: (§1) To test the effect of OPA exposure on sperm cells in physiological conditions (swimming at 37 °C) the plasma membrane disruption on motile sperm cells was measured with the viability PI stain, where the loss of plasma membrane integrity was detected as appearance of red color stained nuclei in the damaged cells. In this assay, sperm cells were exposed to OPA at 37 °C and motility of the exposed sperm cells was induced and maintained for 2 h.
(§2) Cell membrane permeability assay on motile sperm cells was inspected by staining with PI (Molecular Probes, Eugene, OR, USA) in sperm cells induced to swim by shaking at 37 °C. One hundred and fifty μL aliquots of commercial extended boar semen with a density of 27 × 10^6 sperms mL^−1 were pipetted into microtiter plate wells and serially diluted methanolic solution of OPA were added in the concentration range of 200 ng mL^−1 to 4 μg mL^−1 including 6 levels and an additional methanol blank, and pre-incubated for 2 h on orbital shaker (Innova 5000 new Brunswick Scientific, Enfield, CT, USA) (160 rpm) at 37 °C. Four parallel measurements were done for each dilution. One ml PI solution (1 mg mL^−1 in Dulbeco’s phosphate buffered saline) was mixed with 3 mL of […] Dulbeco’s phosphate buffered saline. One hundred and fifty μL of this stain mixture was added to 150 μL of exposed boar semen. This suspension was incubated for 15 min at 37 °C in dark and measured using a microplate reader (Fluoroskan Ascent, Thermo Scientific, Vantaa, Finland) at excitation and emission wavelengths of 544 nm and 600 nm, respectively. For observing plasma membrane damage by PI staining frozen-thawed semen was used as a positive control (for mortality of 100%) representing the maximal fluorescence emitted by the cells permeable to PI and Dulbeco’s phosphate buffered saline was applied as background control (blank). Loss of viability in the sample was calculated as described in Alm et al.. The frozen sample represented 100% loss of viability. The assay was calibrated with triclosan (Sigma Chemical Co., St. Louis, MO, USA), in 5 parallel tests, the EC50 was 2 μg mL^−1 (SD ± 0.6). Cell membrane permeability assay on static sperm cells at room temperature was carried out by viability staining with PI and calcein-AM (Molecular Probes, Eugene, OR, USA) according to Hoornstra et al. in same concentration range and levels described above.

boar spermatozoa [3] = experiment: as above; type: cell-based; details: for EC50: Spermatozoa
Method: as §1, §2

[4] = test system: feline fetus lung (FFL) cells; experiment: Somatic cell toxicity assay (resazurin reduction), FFL; type: cell-based; details: Felis catus, read-out: IC50, cell proliferation
Method: Viability assays, based on resazurin-resorufin transformation, represent excellent correlation to generally used reference assays, such as formazan- and tritiated thymidine based methods. In our experiments, proliferating murine neuroblastoma (MNA), feline fetus lung (FFL) and porcine kidney (PK-15) cells were treated with OPA. […] These values were remarkably less than the concentrations causing sperm toxicity and motility inhibition.
Cytotoxicity against somatic cells was tested with feline fetus lung cells (FFL) cultivated as described by Andersson et al. and murine neuroblastoma cells (MNA) as described by Kulonen et al. as well as porcine kidney tubular epithelial cell line (PK-15), cultured as reported earlier. All somatic cell lines were maintained in an atmosphere of 95% air, 5% CO2 and 95% relative humidity at 37 °C on RPMI 1640 (complete medium) in a cell culture cabinet (Heracell 150i; Thermo Fisher Scientific, Vantaa, Finland). The detached cells were seeded onto 96 well microtiter plates and exposed to the purified OPA, the final concentration of which ranged from 48.8 ng mL^−1 to 25 μg mL^−1 containing 10 levels in methanol. […] Then, the plates were analyzed by a microtiter plate reader (Fluoroskan Ascent, Thermo Scientific, Vantaa, Finland) at the excitation and emission wavelengths of 544 nm and 590 nm, respectively. […]

SMILES: CC(C)=C[C@H]1C[C@H](C)[C@]2(CC[C@]3(C)C[C@H]4[C@H](C(=O)C[C@@]4(C)O)/C(C=O)=C\C[C@H]32)O1 [OPA, ophiobolin A]
- EC50 (boar spermatozoa [1]): 1.6 µg/mL (≈ 3.99 µM)
- viability at 2 h [2]: 38 to 73%
- EC50 (boar spermatozoa [3]; 2 h, read-out: Toxic endpoint EC50, Permeability to PI on motile cells): 1.6 µg/mL (≈ 3.99 µM)
- EC50 (boar spermatozoa [3]; 37 °C, motility maintained for 2 h, read-out: EC50, loss of plasma membrane integrity (PI) on motile sperm cells): 0.8 to 1.6 µg/mL (≈ 2 to 3.99 µM)
- Concentration lethal to the sperm cells (disrupting the plasma membrane) (boar spermatozoa [3]; motile at 37 °C, after 2 h): below 2000 ng/mL
- Concentration inducing lethal damage (loss of plasma membrane integrity) (boar spermatozoa [3]; swimming at 37 °C, short period): < 1 µg/mL
- IC50 [4]: 0.0488 µg/mL (≈ 0.122 µM)
